Data published in ChEMBL document CHEMBL4229375, “Towards new antibiotics targeting bacterial transglycosylase: Synthesis of a Lipid II analog as stable transition-state mimic inhibitor” (Bioorg Med Chem Lett, 2018).

Biological target: Bacterial penicillin-binding protein (Bacteria) (UniProt P24228+P0AD68+P02918+P02919+P0AEB2+P0AD65+P08506)
Assay: Inhibition of Acinetobacter baumannii PBP transglycosylase activity at 50 uM using NBD-labeled lipid 2 as substrate after 30 mins by N-acetylmuramidase enzyme coupled HPLC analysis relative to control
Type: protein assay

`CC(=O)N[C@H]1[C@H](O[C@H]2[C@H](O)[C@H](O)[C@@H](CP(=O)(O)OP(=O)(O)OC/C=C(\C)CC/C=C(/C)CC/C=C(\C)CCC=C(C)C)N[C@@H]2CO)O[C@H](CO)[C@@H](O)[C@@H]1O` was tested, and the inhibition was 70%.
